Values joined by “and” are separate entries in the source; they are usually repeats but may differ in a detail not shown here. Equal entries are not always repeated. Where two headings read alike, the source gives them in different places.
Columns and labels:
PANC-1 cells = assay: CellTiter-Glo luminescent cell viability assay, PANC-1
[1] = CellTiter-Glo luminescent cell viability assay, primary fibroblasts; conditions: human, primary skin fibroblasts (non-tumorous), Primer fibroblast Cell viability (% of controll), 72 h, dose–response, individual replicates
Experimental: (§1) Primary fibroblast cultures were prepared from human skin biopsies and maintained in DMEM supplemented with 10% FBS, 1% penicillin-streptomycin, and 1% MEM Non-Essential Amino Acids Solution (Thermo Fisher Scientific). […] All cell lines were cultured in a humidified atmosphere at 37 °C and 5% CO2, passaged twice a week, and the experiments were performed on cells between passage 5 and 15. The cell lines were routinely screened for the absence of mycoplasma infection (DAPI staining).
(§2) The effects of the synthesized compounds on cell viability were measured using the CellTiter-Glo® luminescent cell viability assay (Promega, Madison, WI, USA), according to the manufacturer’s instructions. Briefly, cells were seeded onto a flat-bottomed, white 96-well plate (BRANDplates, cat. no.: 781965)), with the following densities: PANC-1: 750 cells/well, Fadu: 2000 cells/well, primary fibroblasts: 2000 cells/well, HEK293T WT: 1000 cells/well, HEK293T CLPP^−/−: 2500 cells/well. After seeding, cells were incubated for a further 48 h before treatment. Cells were treated with the compounds for 72 h. Three concentrations (25.0 µM; 8.3 µM; 2.8 µM) were applied during the initial cell viability screening, while for the determination of dose–response curves, 1.5-fold serially diluted compound concentrations were applied (range: 26 µM–0.7 µM). After treatment, the luminescence signal was recorded using a microplate reader (BioTek Synergy 2 Multi-Mode Reader, BioTek, Winooski, VT, USA).
(§3) Data analysis was performed using GraphPad Prism 9.5.0 software (GraphPad Software, San Diego, CA, USA). […] The dose–response curves were generated by four-parameter nonlinear regression, and the IC50 values were determined as the means ± SEM of the best-fit values of 3 independent measurements. The R^2 values were consistently above 0.93, indicating a strong fit of the model to the experimental data (Supplementary S.89). […] Dunnett’s post hoc test was applied to adjust for multiple comparisons, minimizing the likelihood of false positive results. Assumptions for ANOVA, including normality (assessed via QQ plots) and homogeneity of variance (tested using the Brown–Forsythe test), were verified. The following significance levels were applied: * p < 0.05, ** p < 0.01, *** p < 0.001, **** p < 0.0001. […] The tumor selectivity of the compounds was quantitatively characterized by the selectivity index (SI). This parameter was calculated as the ratio of the average best-fit IC50 value for primary fibroblasts and the best-fit IC50 value for the corresponding tumor cells (PANC-1 or Fadu).

[2] = tested on: non-tumorous primary fibroblast cells; assay: as above; conditions: for Primer fibroblast Cell viability (% of controll): dose–response, individual replicates; for IC50: Homo sapiens, Fibroblast
Experimental: as §1, §2, §3

Fadu cells = assay: CellTiter-Glo luminescent cell viability assay, Fadu
[3] = 0.7 μM, 72 h, dose–response, individual replicates
[4] = 1 μM, 72 h, dose–response, individual replicates
[5] = 1.5 μM, 72 h, dose–response, individual replicates
[6] = 2.3 μM, 72 h, dose–response, individual replicates
[7] = 3.4 μM, 72 h, dose–response, individual replicates
[8] = 5.1 μM, 72 h, dose–response, individual replicates
[9] = 7.7 μM, 72 h, dose–response, individual replicates
[10] = 17.3 μM, 72 h, dose–response, individual replicates
[11] = 26 μM, 72 h, dose–response, individual replicates

Q: For `CNCC#Cc1cccc(CN2C(=O)C3=C(CCN(Cc4ccc(-n5cc(-c6cccc(F)c6)nn5)cc4)C3)N3CCN=C23)c1` [43a], which “PANC-1 Cell viability (% of controll)” value (PANC-1 cells; [3]) is on record?
A: 108 % of controll and 111 % of controll

Q: And the “PANC-1 Cell viability (% of controll)” value (PANC-1 cells; [4])?
A: 112 % of controll and 115 % of controll

Q: What about the “PANC-1 Cell viability (% of controll)” value (PANC-1 cells; [5]) of the same compound?
A: 102 % of controll and 112 % of controll

Q: What about the “PANC-1 Cell viability (% of controll)” value (PANC-1 cells; [6]) of the same compound?
A: 93 % of controll and 84 % of controll and 107 % of controll

Q: What about the “PANC-1 Cell viability (% of controll)” value (PANC-1 cells; [7]) of the same compound?
A: 0 % of controll

Q: And the “PANC-1 Cell viability (% of controll)” value (PANC-1 cells; [8])?
A: 0 % of controll

Q: And the “PANC-1 Cell viability (% of controll)” value (PANC-1 cells; [9])?
A: 0 % of controll

Q: And the “PANC-1 Cell viability (% of controll)” value (PANC-1 cells; [10])?
A: 0 % of controll

Q: What about the “PANC-1 Cell viability (% of controll)” value (PANC-1 cells; [11]) of the same compound?
A: 0 % of controll

Q: And the IC50 (PANC-1 cells; Homo sapiens, PANC-1, 72 h, read-out: IC50 Value ± SEM PANC-1, 72 h treatment, best-fit values, n = 3)?
A: 2.5 ± 0.94 µM

Q: What about the viability at 0.7 µM (PANC-1 cells; Homo sapiens, PANC-1, 72 h, read-out: PANC-1 Cell viability (% of controll), 0.7 μM, 72 h, dose–response, individual replicates) of the same compound?
A: 114%

Q: What about the viability at 1 µM (PANC-1 cells; Homo sapiens, PANC-1, 72 h, read-out: PANC-1 Cell viability (% of controll), 1 μM, 72 h, dose–response, individual replicates) of the same compound?
A: 110%

Q: What about the viability at 1.5 µM (PANC-1 cells; Homo sapiens, PANC-1, 72 h, read-out: PANC-1 Cell viability (% of controll), 1.5 μM, 72 h, dose–response, individual replicates) of the same compound?
A: 102%

Q: What about the viability at 3.4 µM (PANC-1 cells; Homo sapiens, PANC-1, 72 h, read-out: PANC-1 Cell viability (% of controll), 3.4 μM, 72 h, dose–response, individual replicates) of the same compound?
A: 0%

Q: And the viability at 5.1 µM (PANC-1 cells; Homo sapiens, PANC-1, 72 h, read-out: PANC-1 Cell viability (% of controll), 5.1 μM, 72 h, dose–response, individual replicates)?
A: 0%

Q: And the viability at 7.7 µM (PANC-1 cells; Homo sapiens, PANC-1, 72 h, read-out: PANC-1 Cell viability (% of controll), 7.7 μM, 72 h, dose–response, individual replicates)?
A: 0%

Q: And the viability at 17.3 µM (PANC-1 cells; Homo sapiens, PANC-1, 72 h, read-out: PANC-1 Cell viability (% of controll), 17.3 μM, 72 h, dose–response, individual replicates)?
A: 0%

Q: What about the viability at 26 µM (PANC-1 cells; Homo sapiens, PANC-1, 72 h, read-out: PANC-1 Cell viability (% of controll), 26 μM, 72 h, dose–response, individual replicates) of the same compound?
A: 0%

Q: What about the IC50 (PANC-1 cells; Homo sapiens, PANC-1, read-out: PANC-1 IC50 values, Mean, mean of independently fitted replicate IC50 values (Supplement S.6)) of the same compound?
A: 2.48 µM

Q: And the “Selectivity Index (SI) Fibroblast/PANC-1” value (PANC-1 cells; ratio of mean best-fit IC50 for primary fibroblasts and best-fit IC50 for PANC-1)?
A: 1.3

Q: What about the viability at 72 h, 0.7 µM ([1]; 0.7 μM) of the same compound?
A: 99%

Q: What about the viability at 72 h, 1 µM ([1]; 1 μM) of the same compound?
A: 109%

Q: And the viability at 72 h, 2.3 µM ([1]; 2.3 μM)?
A: 111%

Q: What about the viability at 72 h, 3.4 µM ([1]; 3.4 μM) of the same compound?
A: 35%

Q: And the viability at 72 h, 5.1 µM ([1]; 5.1 μM)?
A: 0%

Q: What about the viability at 72 h, 7.7 µM ([1]; 7.7 μM) of the same compound?
A: 0%

Q: And the viability at 72 h, 17.3 µM ([1]; 17.3 μM)?
A: 0%

Q: What about the viability at 72 h, 26 µM ([1]; 26 μM) of the same compound?
A: 0%

Q: What about the “Primer fibroblast Cell viability (% of controll)” value ([2]; 0.7 μM, 72 h) of the same compound?
A: 107 % of controll

Q: What about the “Primer fibroblast Cell viability (% of controll)” value ([2]; 1 μM, 72 h) of the same compound?
A: 108 % of controll and 106 % of controll

Q: What about the “Primer fibroblast Cell viability (% of controll)” value ([2]; 1.5 μM, 72 h) of the same compound?
A: 114 % of controll and 125 % of controll and 99 % of controll

Q: And the “Primer fibroblast Cell viability (% of controll)” value ([2]; 2.3 μM, 72 h)?
A: 101 % of controll and 104 % of controll

Q: And the “Primer fibroblast Cell viability (% of controll)” value ([2]; 3.4 μM, 72 h)?
A: 34 % of controll and 29 % of controll

Q: What about the “Primer fibroblast Cell viability (% of controll)” value ([2]; 5.1 μM, 72 h) of the same compound?
A: 0 % of controll

Q: What about the “Primer fibroblast Cell viability (% of controll)” value ([2]; 7.7 μM, 72 h) of the same compound?
A: 0 % of controll

Q: What about the “Primer fibroblast Cell viability (% of controll)” value ([2]; 17.3 μM, 72 h) of the same compound?
A: 0 % of controll

Q: What about the “Primer fibroblast Cell viability (% of controll)” value ([2]; 26 μM, 72 h) of the same compound?
A: 0 % of controll

Q: And the IC50 ([2]; 72 h, read-out: IC50 Value ± SEM Primary Fibroblast, 72 h treatment, best-fit values, n = 3)?
A: 3.2 ± 0.07 µM

Q: What about the IC50 ([2]; read-out: Primary fibroblast IC50 values, Mean, mean of independently fitted replicate IC50 values (Supplement S.6), ONC201 value mathematically estimated from inflection point) of the same compound?
A: 3.23 µM

Q: What about the “Fadu Cell viability (% of controll)” value (Fadu cells; [3]) of the same compound?
A: 109 % of controll

Q: And the “Fadu Cell viability (% of controll)” value (Fadu cells; [4])?
A: 109 % of controll

Q: And the “Fadu Cell viability (% of controll)” value (Fadu cells; [5])?
A: 104 % of controll and 103 % of controll

Q: And the “Fadu Cell viability (% of controll)” value (Fadu cells; [6])?
A: 80 % of controll and 88 % of controll

Q: And the “Fadu Cell viability (% of controll)” value (Fadu cells; [7])?
A: 71 % of controll and 29 % of controll and 38 % of controll

Q: And the “Fadu Cell viability (% of controll)” value (Fadu cells; [8])?
A: 5 % of controll and 0 % of controll

Q: And the “Fadu Cell viability (% of controll)” value (Fadu cells; [9])?
A: 0 % of controll

Q: And the “Fadu Cell viability (% of controll)” value (Fadu cells; [10])?
A: 0 % of controll

Q: And the “Fadu Cell viability (% of controll)” value (Fadu cells; [11])?
A: 0 % of controll

Q: What about the viability at 0.7 µM (Fadu cells; Homo sapiens, FaDu, 72 h, read-out: Fadu Cell viability (% of controll), 0.7 μM, 72 h, dose–response, individual replicates) of the same compound?
A: 108%

Q: What about the viability at 1 µM (Fadu cells; Homo sapiens, FaDu, 72 h, read-out: Fadu Cell viability (% of controll), 1 μM, 72 h, dose–response, individual replicates) of the same compound?
A: 112%

Q: What about the viability at 1.5 µM (Fadu cells; Homo sapiens, FaDu, 72 h, read-out: Fadu Cell viability (% of controll), 1.5 μM, 72 h, dose–response, individual replicates) of the same compound?
A: 103%

Q: What about the viability at 2.3 µM (Fadu cells; Homo sapiens, FaDu, 72 h, read-out: Fadu Cell viability (% of controll), 2.3 μM, 72 h, dose–response, individual replicates) of the same compound?
A: 95%

Q: What about the viability at 7.7 µM (Fadu cells; Homo sapiens, FaDu, 72 h, read-out: Fadu Cell viability (% of controll), 7.7 μM, 72 h, dose–response, individual replicates) of the same compound?
A: 0%

Q: What about the viability at 17.3 µM (Fadu cells; Homo sapiens, FaDu, 72 h, read-out: Fadu Cell viability (% of controll), 17.3 μM, 72 h, dose–response, individual replicates) of the same compound?
A: 0%

Q: What about the viability at 26 µM (Fadu cells; Homo sapiens, FaDu, 72 h, read-out: Fadu Cell viability (% of controll), 26 μM, 72 h, dose–response, individual replicates) of the same compound?
A: 0%

Q: And the IC50 (Fadu cells; Homo sapiens, FaDu, 72 h, read-out: IC50 Value ± SEM Fadu, 72 h treatment, best-fit values, n = 3)?
A: 3.2 ± 0.1 µM

Q: What about the IC50 (Fadu cells; Homo sapiens, FaDu, read-out: Fadu IC50 values, Mean, mean of independently fitted replicate IC50 values (Supplement S.6)) of the same compound?
A: 3.18 µM

Q: And the “Selectivity Index (SI) Fibroblast/Fadu” value (Fadu cells; ratio of mean best-fit IC50 for primary fibroblasts and best-fit IC50 for Fadu)?
A: 1.0

From publication PMC11642016 (International Journal of Molecular Sciences, 2024)
